Some test systems named below: UO-31 renal; OVCAR-8 ovarian; IGROV1 ovarian; HT29 colon; T-47D breast; NCI-H522 lung; SK-MEL-28 melanoma; SK-OV-3 ovarian; TK-10 renal; NCI-H460 lung.
Test in all cases: DTP human tumour cell line panel, 48 h

SMILES strings stand for the structures.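 Tested at 5 concentrations; 48 h exposure; 96-well plates; endpoints linearly interpolated, else capped at highest concentration. Abbreviation: GI50, concentration required for 50% inhibition of growth. TGI is the concentration that stops growth completely.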

On to `Cc1ccc(OCC2=NC3S/C(=C/c4ccc([N+](=O)[O-])o4)C(=O)N3N2)cc1` (configuration not stated), for which the TGI is 34.8 µM with UO-31 renal; 14.3 µM with OVCAR-8 ovarian; 22.5 µM in the experiment on IGROV1 ovarian; 22.6 µM with HT29 colon; 5.39 µM with T-47D breast; 4.37 µM with NCI-H522 lung. The TGI in the experiment on SK-MEL-28 melanoma came out at 30.5 µM; in the experiment with SK-OV-3 ovarian, 29.9 µM; in the experiment on TK-10 renal it was 30.1 µM; in the experiment on NCI-H460 lung it was 41.6 µM.
As to `COc1cc(C2c3cc4c(cc3[C@@H](Nc3ccc(Oc5ccccc5)cc3)C3COC(=O)[C@H]23)OCO4)cc(OC)c1O` (some centres not stated), the TGI in the experiment on UO-31 renal is over 100 µM; in the experiment with OVCAR-8 ovarian it was over 100 µM; in the experiment with IGROV1 ovarian it was over 100 µM; with HT29 colon it was over 100 µM; in the experiment with NCI-H522 lung, over 78.9 µM; with SK-MEL-28 melanoma, over 100 µM. Moreover, the figures for the TGI in the experiment on SK-OV-3 ovarian and in the experiment with NCI-H460 lung were over 52 µM and 12.2 µM, respectively.
Consider `CCOC(=O)c1c(-c2cccc(Cl)c2)c(C(=O)OC)c(C)c2sc(C=O)nc12`, for which the TGI in the experiment on UO-31 renal came to 37.8 µM; with OVCAR-8 ovarian it was 41.9 µM; in the experiment with IGROV1 ovarian, 32.9 µM; in the experiment on HT29 colon, 49.5 µM; in the experiment with T-47D breast, 45.6 µM; in the experiment on NCI-H522 lung it was 32.5 µM. In addition, the TGI in the experiment on SK-MEL-28 melanoma is 34.5 µM; in the experiment on SK-OV-3 ovarian, 92.2 µM; in the experiment with TK-10 renal, 50 µM; in the experiment on NCI-H460 lung, 50.1 µM.
Consider `Cc1cc2ccc(OC(=O)c3ccc(N=C(N)N)cc3)cc2oc1=O`, for which the TGI in the experiment with UO-31 renal was over 100 µM; in the experiment on OVCAR-8 ovarian it was over 100 µM; in the experiment with IGROV1 ovarian, over 100 µM; in the experiment with HT29 colon, 70.4 µM; in the experiment on T-47D breast, 95 µM; in the experiment with NCI-H522 lung, 45.2 µM. The TGI in the experiment on SK-MEL-28 melanoma was 58.6 µM; in the experiment with SK-OV-3 ovarian it was 46.4 µM; in the experiment on TK-10 renal it was 49.8 µM; with NCI-H460 lung, over 100 µM.
As for `COC(=O)c1cc(NC(=O)c2cc(NC(=O)Cc3c[nH]c4ccccc34)cn2C)cn1C`, the TGI is 85.2 µM in the experiment with UO-31 renal; over 100 µM in the experiment with OVCAR-8 ovarian; 55.8 µM with HT29 colon; over 100 µM in the experiment with T-47D breast; over 100 µM in the experiment on SK-MEL-28 melanoma; over 100 µM in the experiment on SK-OV-3 ovarian. Moreover, the TGI in the experiment on TK-10 renal and in the experiment with NCI-H460 lung was over 100 µM each time.
`COC(=O)C1=C(OC(=O)/C=C/c2ccc(Cl)cc2)C(C(=O)OC)[C@]2(O)[C@@H](C(=O)OC)[C@H]1C[C@@H](c1ccccc1)[C@@H]2C(=O)OC` (some centres not stated): the TGI in the experiment on UO-31 renal is over 30.9 µM; with OVCAR-8 ovarian, over 30.7 µM; with IGROV1 ovarian it was over 25.9 µM; with HT29 colon it was over 100 µM; in the experiment with T-47D breast it was over 100 µM; with NCI-H522 lung it was 5.83 µM. The TGI in the experiment with SK-MEL-28 melanoma, in the experiment with SK-OV-3 ovarian, in the experiment on TK-10 renal and with NCI-H460 lung was over 100 µM in each case.
As to `CC1C(=O)c2cc3c(cc2CCN(C)Cc2c1ccc1c2OCO1)OCO3` (configuration not stated), the GI50 is over 75 µg/mL with OVCAR-8 ovarian; over 75 µg/mL with IGROV1 ovarian; 19.6 µg/mL in the experiment with HT29 colon; over 75 µg/mL with T-47D breast; 34.6 µg/mL with NCI-H522 lung; 30.9 µg/mL in the experiment on SK-MEL-28 melanoma. For the same molecule, the GI50 in the experiment on SK-OV-3 ovarian is over 75 µg/mL; with TK-10 renal, over 75 µg/mL; with NCI-H460 lung it was 40.3 µg/mL. For the same molecule, the TGI in the experiment with OVCAR-8 ovarian, in the experiment on IGROV1 ovarian, in the experiment with HT29 colon, in the experiment with T-47D breast, in the experiment with NCI-H522 lung and in the experiment on SK-MEL-28 melanoma was over 75 µg/mL each time. Moreover, the TGI with SK-OV-3 ovarian, with TK-10 renal and with NCI-H460 lung was over 75 µg/mL in each case.
On to `CS(C)(=O)=Nn1c(=O)n2n(c1=O)C1c3ccccc3C2c2ccccc21`, for which the TGI in the experiment on UO-31 renal, in the experiment with OVCAR-8 ovarian, in the experiment on IGROV1 ovarian, in the experiment on HT29 colon, in the experiment on T-47D breast and in the experiment with NCI-H522 lung was over 100 µM each time. The TGI in the experiment with SK-MEL-28 melanoma, in the experiment on SK-OV-3 ovarian, in the experiment on TK-10 renal and in the experiment on NCI-H460 lung was over 100 µM each time.
Turning to `COc1ccc(-c2nn(-c3ccc(NC(=O)c4cc(Cl)cc(Cl)c4)cc3)cc2-c2ccncc2)cc1Cl`, the GI50 with UO-31 renal was 3.43 µM; with OVCAR-8 ovarian, over 100 µM; with IGROV1 ovarian it was over 100 µM; with HT29 colon it was 2.26 µM; with T-47D breast, over 100 µM; in the experiment on NCI-H522 lung, 5.11 µM. Besides, the GI50 with SK-MEL-28 melanoma was over 100 µM; in the experiment with TK-10 renal, 6.18 µM; with NCI-H460 lung, 6.08 µM. The TGI with UO-31 renal, in the experiment on OVCAR-8 ovarian, in the experiment on IGROV1 ovarian, in the experiment on HT29 colon, in the experiment with T-47D breast and in the experiment on NCI-H522 lung was over 100 µM each time. In addition, the TGI with SK-MEL-28 melanoma, in the experiment with TK-10 renal and with NCI-H460 lung was over 100 µM throughout.
For the molecule `CC1=C[C@@H](C)C[C@]2(C)CC[C@H](O2)[C@]23CC[C@](CO)(C[C@H](O2)[C@@H]2O[C@@](C)(CC2=O)[C@@H](O)[C@H]2CC[C@@]4(CCC[C@@H](O4)[C@H](C)C(=O)O[C@H]4C[C@H]([C@]5(O)OCC[C@H](C)[C@@H]5O)O[C@H]4C=C1)O2)O3`, the TGI with UO-31 renal is 0.207 µM; in the experiment with OVCAR-8 ovarian, over 4.19 µM; in the experiment on IGROV1 ovarian, 0.0561 µM; in the experiment with HT29 colon it was over 10 µM; in the experiment on T-47D breast it was over 10 µM; with NCI-H522 lung, over 2.1 µM. Moreover, the TGI is 0.0391 µM with SK-MEL-28 melanoma, 0.159 µM in the experiment with SK-OV-3 ovarian, 0.0714 µM with TK-10 renal and over 10 µM with NCI-H460 lung.
`COC(=O)C1CC23C4=C(CCC41)CCC1CN4CC(C)C(CC(OC(C)=O)C12COC(C)=O)C43O` (configuration not stated): the TGI in the experiment with UO-31 renal, in the experiment with OVCAR-8 ovarian, with IGROV1 ovarian, in the experiment on HT29 colon, in the experiment with T-47D breast and with NCI-H522 lung was over 100 µM each time. The TGI in the experiment on SK-MEL-28 melanoma, in the experiment with SK-OV-3 ovarian, with TK-10 renal and in the experiment with NCI-H460 lung was over 100 µM throughout.
`Cc1n[n+]([O-])c(C)cc1[N+](=O)[O-]`: the TGI was 29.7 µM in the experiment on UO-31 renal; 31.6 µM with OVCAR-8 ovarian; 49 µM with IGROV1 ovarian; 27 µM with HT29 colon; 35.3 µM in the experiment on T-47D breast; 25.6 µM in the experiment on NCI-H522 lung. Further, the TGI with SK-MEL-28 melanoma is 31.9 µM; in the experiment on SK-OV-3 ovarian it was over 100 µM; in the experiment on TK-10 renal, 24.5 µM; in the experiment with NCI-H460 lung, 28.4 µM.

By TGI is commonly meant the concentration at which net growth stops. High values mean less potent growth arrest, low ones more potent growth arrest. Broadly, the GI50 is the concentration that inhibits growth by half.

The record behind these values is PubChem BioAssay (NCI).
